Assay results reported in patent US8980917B2, “Methods for treating or preventing brain infections” (The Johns Hopkins University, priority 2008, dated 2015).
“Also recorded” adds a separate entry of the source.

Legend:
[1] = tested on: E. coli K1 strain RS218; experiment: Mouse model of experimental hematogenous E. coli meningitis (cPLA2α-/- and wild type BALB/c mice); assay type: in vivo; conditions: i.v. 1.2 μg/mouse in 50 μl PBS 30 mins before bacterial injection
Method: cPLA2α−/− and wild type mice, either male or female, […] that had been backcrossed on the BALB/c strain for >10 generations were used^14. All procedures and handling techniques were approved by The Johns Hopkins Animal Care and Use Committee.
Each mouse received 1×10^7 CFU of E. coli K1 strain RS218 in 100 μl PBS via the tail vein. One hour later, mouse chest was cut open, and blood from right ventricle was collected and plated for bacteria counts, which were expressed as CFUs/ml of blood. The mouse was then perfused with a mammalian Ringer's solution by transcardiac perfusion through a 23-gauge needle inserted into the left ventricle of the heart under the perfusion pressure of about 100 mmHg. The perfusate exited through a cut in the right atrium. […] The brains were removed, weighed and homogenized in 2 ml RPMI followed by plating for bacterial counts, which were expressed as CFUs/gm. Since E. coli K1 penetration into the brain is shown to depend on the magnitude of bacteremia^5,7, bacterial penetration into the brain was also expressed as [(brain CFUs per gm)/(blood CFUs per ml)]×100. Kidneys and spleens were also removed, homogenized and plated for determination of bacterial counts, which were expressed as CFUs/gm. […]

[2] = tested on: C. neoformans; experiment: Mouse model of C. neoformans meningitis/meningoencephalitis following intravenous inoculation; assay type: in vivo; conditions: strain B-3501A; cPLA2α-/- mice; i.v. 1.2 μg/mouse 30 mins before C. neoformans injection; 24 hours
Method: The mouse model of Cryptococcal meningitis/meningoencephalitis following intravenous inoculation was used to determine the hematogenous dissemination of C. neoformans to the brain as described previously (7, 8). C. neoformans strains grown on 1% yeast extracts, 2% peptone and 2% dextrose (YPD) agar were suspended in phosphate-buffered saline (PBS, pH 7.4) and counted with a hemocytometer to determine the yeast cell number. This suspension was also cultured on YPD agar plates, and colonies (CFUs) counted after 3 days of incubation at 30° C. as previously described (11). The inoculum size was confirmed by CFUs.
Briefly, female BALB/c mice received 10^5 yeast cells via the tail vein. 24 hours later, the blood specimens were obtained for determination of CFUs, and the animals perfused with sterile Ringer's solution until the perfused solution became colorless. The brains were removed, weighed, homogenized and cultured on YPD agar for determination of CFUs.
cPLA2α. We examined the role of host cPLA2α in C. neoforman strain B-3501A penetration into the brain by studying cPLA2α−/− mice as compared to their strain-matched wild type mice. Each animal received 10^5 yeast cells via the tail vein. 24 hours later, the blood specimens were obtained for determination of CFUs, and the animals perfused with sterile Ringer's solution until the perfused solution became colorless. […]

[3] = tested on: blood-brain barrier; experiment: Blood-brain barrier permeability by Evans blue dye extravasation into the brain; assay type: in vivo, mouse; conditions: cPLA2α-/- mice

CCCCC/C=C\C/C=C\C/C=C\C/C=C\CCCC(=O)O [arachidonic acid, Arachidonic acid]
E. coli K1 penetration into the brain (brain CFU/gm and percent of brain CFU/blood CFU) [1]: significantly enhanced E. coli K1 penetration into the brain to the level observed in the wild type mice | C. neoformans penetration into the brain (CFU/gm) [2]: significantly enhanced C. neoformans penetration into the brain to the level observed in the wild type mice | blood-brain barrier permeability (Evans blue extravasation into the brain) ([3]; 1.2 μg i.v. 30 min before E. coli RS218 injection): no significantly increased extravasation of intravenously administered Evans blue dye into the brain; also recorded: did not affect the blood-brain barrier permeability | blood-brain barrier permeability (Evans blue extravasation into the brain) ([3]; 1.2 μg/mouse i.v. 30 mins before C. neoformans injection): not accompanied by any change in the blood-brain barrier permeability
